Experimental data: US10111435B2, “Herbicidal compositions containing N-(1,3,4-oxadiazol-2-yl)-aryl carboxylic acid amides” (BAYER CROPSCIENCE AKTIENGESELLSCHAFT, priority 2013, dated 2018)
Like-named read-outs stand apart in the source and are kept apart here.

What was measured:
Type in all cases: in vivo
Avena fatua (AVEFA) = assay: greenhouse post-emergence herbicidal efficacy against AVEFA
In short: (§1)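 In the greenhouse, herbicidal compositions and their individual active ingredients are applied post-emergence at 300 L/ha. Damage is scored by eye against untreated controls on a 0–100% scale at 14 and 21 days.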

Galium aparine (GALAP) = assay: greenhouse post-emergence herbicidal efficacy against GALAP
In short: as §1

Phalaris minor (PHAMI) = assay: greenhouse post-emergence herbicidal efficacy against PHAMI
In short: as §1

[1] = system: Polygonum convolvulus (POLCO); assay: greenhouse post-emergence herbicidal efficacy against POLCO
In short: as §1

Bromus sterilis (BROST) = assay: greenhouse post-emergence herbicidal efficacy against BROST
In short: as §1

Eleusine indica (ELEIN) = assay: greenhouse post-emergence herbicidal efficacy against ELEIN; settings: for pest or weed control at […] / pest or weed control at 10 g/ha / pest or weed control at 300 g/ha / pest or weed control at 1200 g/ha: Eleusine indica, post-emergence; for pest or weed control at […]: 2.5 g of a.i./ha; for pest or weed control at 10 g/ha: 10 g of a.i./ha; for pest or weed control at 300 g/ha / pest or weed control at 1200 g/ha: read-out: Efficacy
In short: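 Visual % damage vs untreated controls (0 = none, 100 = plants dead), 14 and 21 d post-spray. Sandy loam, 8 cm pots, greenhouse, optimal growth. Post-emergence spray at 300 L/ha of mixtures or solo a.i. Colby expected value E^C = A+B−A×B/100; Diff = measured minus expected.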

[2] = system: Echinochloa crus-galli (ECHCG); assay: greenhouse post-emergence herbicidal efficacy against ECHCG
Description: (§2) All trials whose results are shown were conducted in a greenhouse by the methodology specified below. The effect of the inventive herbicidal compositions was examined on the following harmful plants 14 and 21 days after application:
(§3) Echinochloa crus-galli (ECHCG), Eleusine indica (ELEIN), Setaria viridis (SETVI), Amaranthus retroflexus (AMARE), Chenopodium album (CHEAL), Kochia scoparia (KCHSC), Solanum nigrum (SOLNI), Avena fatua (AVEFA), Bromus sterilis (BROST), Lolium multiflorum (LOLMU), Phalaris minor (PHAMI), Poa annua (POAAN), Galium aparine (GALAP), Matricaria inodora (MATIN) and Polygonum convolvulus (POLCO).
(§4) The harmful plant seeds were sown in pots (diameter 8 cm) with sandy loam soil and germinated under optimal conditions. The inventive herbicidal compositions or the active ingredients alone were applied post-emergence to the planted pots with a spray volume of 300 L/ha. The trial was conducted in a greenhouse under optimum growth conditions. The herbicidal effects were assessed visually by comparison of untreated and treated plants. The percentages mean: 0%=no effects, 100%=the plants die off completely). The percentages are used to calculate interactions between individual treatments and combination treatments according to S. R. Colby, Weeds 15, pages 20 to 22 (1967).
(§5) The abbreviations mean: • a.i.=active ingredient • E^C=expected value according to Colby (E^C=A+B−A×B/100) • Diff: =difference (%) of measured value from expected value (%) (measured value minus expected value)
(§6) Assessment: • measured value E is greater than E^C:->synergism (+ diff.) • measured value E equals E^C:->additive effect • measured value E is smaller than E^C:->antagonism(− diff.)

Solanum nigrum (SOLNI) = assay: greenhouse post-emergence herbicidal efficacy against SOLNI
Description: as §2, §3, §4, §5, §6

[3] = system: Matricaria inodora (MATIN); assay: greenhouse post-emergence herbicidal efficacy against MATIN
In short: as §1

[4] = system: Amaranthus retroflexus (AMARE); assay: greenhouse post-emergence herbicidal efficacy against AMARE
Description: as §2, §3, §4, §5, §6

Setaria viridis (SETVI) = assay: greenhouse post-emergence herbicidal efficacy against SETVI
Description: as §2, §3, §4, §5, §6

[5] = system: Lolium multiflorum (LOLMU); assay: greenhouse post-emergence herbicidal efficacy against LOLMU
In short: as §1

DIGSA = assay: greenhouse post-emergence herbicidal efficacy against DIGSA
Description: as §2, §4, §5, §6

Poa annua (POAAN) = assay: greenhouse post-emergence herbicidal efficacy against POAAN
In short: as §1

[6] = 14 days after application, 2.5 g of a.i./ha
[7] = 14 days after application, 10 g of a.i./ha
[8] = 21 days after application, g of a.i./ha: A1-36 2.5, flurtamone 80
[9] = 21 days after application, g of a.i./ha: A1-36 2.5, flurtamone 320
[10] = 21 days after application, g of a.i./ha: A1-36 10, flurtamone 80
[11] = 21 days after application, g of a.i./ha: A1-36 10, flurtamone 320
[12] = 14 days after application, 2 g of a.i./ha
[13] = 21 days after application, 2 g of a.i./ha
[14] = 14 days after application, 0.5 g of a.i./ha
[15] = 21 days after application, 0.5 g of a.i./ha
[16] = 14 days after application, g of a.i./ha: A1-60 2.5, isoproturon 1600
[17] = 14 days after application, g of a.i./ha: A1-60 10, isoproturon 400
[18] = 14 days after application, g of a.i./ha: A1-60 10, isoproturon 1600
[19] = 21 days after application, g of a.i./ha: A1-60 10, isoproturon 400
[20] = 14 days after application, g of a.i./ha: A1-60 2.5, isoproturon 400
[21] = 21 days after application, g of a.i./ha: A1-60 2.5, isoproturon 400
[22] = 21 days after application, g of a.i./ha: A1-60 10, isoproturon 1600
[23] = 14 days after application, 1 g of a.i./ha
[24] = 14 days after application, 4 g of a.i./ha
[25] = 21 days after application, 4 g of a.i./ha
[26] = 21 days after application, 1 g of a.i./ha
[27] = 336 h, 14 days after application
[28] = 504 h, 21 days after application
[29] = 21 days after application, 2.5 g of a.i./ha
[30] = 21 days after application, 10 g of a.i./ha
[31] = 14 days after application, 300 g of a.i./ha
[32] = 14 days after application, 1200 g of a.i./ha
[33] = 21 days after application, 300 g of a.i./ha
[34] = 21 days after application, 1200 g of a.i./ha

Cc1nnc(NC(=O)c2ccc(C(F)(F)F)c(S(C)(=O)=O)c2Cl)o1 [A1-36]
25%: Efficacy (Galium aparine (GALAP); [7]) | Efficacy (Galium aparine (GALAP); [10]) | Efficacy (Galium aparine (GALAP); [11])
0%: Efficacy (Avena fatua (AVEFA); [6]) | Efficacy (Galium aparine (GALAP); [8]) | Efficacy (Phalaris minor (PHAMI); [6]) | Efficacy [1, 6] | Efficacy (Bromus sterilis (BROST); [6]) | Efficacy [2, 15] | Efficacy [3, 8] | Efficacy [3, 9] | Efficacy [5, 10]
20%: Efficacy (Phalaris minor (PHAMI); [10]) | Efficacy [2, 13] | Efficacy [4, 15]
3%: Efficacy [1, 10] | Efficacy [1, 11] | Efficacy [5, 7]
50%: Efficacy (Eleusine indica (ELEIN); [12]) | Efficacy (Solanum nigrum (SOLNI); [13])
5%: Efficacy (Galium aparine (GALAP); [6]) | Efficacy (Bromus sterilis (BROST); [8]) | Efficacy (Bromus sterilis (BROST); [9])
65%: Efficacy (Setaria viridis (SETVI); [13])
10%: Efficacy (Avena fatua (AVEFA); [8]) | Efficacy (Avena fatua (AVEFA); [9]) | Efficacy [2, 14] | Efficacy (DIGSA; [14]) | Efficacy (DIGSA; [15])
15%: Efficacy (Avena fatua (AVEFA); [7]) | Efficacy (Avena fatua (AVEFA); [10]) | Efficacy (Avena fatua (AVEFA); [11]) | Efficacy [3, 6] | Efficacy [3, 10] | Efficacy [3, 11]
70%: Efficacy [4, 13]
40%: Efficacy [2, 12] | Efficacy [3, 7]
30%: Efficacy (Phalaris minor (PHAMI); [7]) | Efficacy (Eleusine indica (ELEIN); [13])

Cc1nnc(NC(=O)c2ccc(C(F)(F)F)c([S+](C)[O-])c2C)o1 (stereo not drawn) [A1-60]
25%: Efficacy (Galium aparine (GALAP); [20]) | Efficacy (Galium aparine (GALAP); [16]) | Efficacy (Phalaris minor (PHAMI); [17]) | Efficacy (Phalaris minor (PHAMI); [18])
40%: Efficacy (Eleusine indica (ELEIN); [26]) | Efficacy [2, 26] | Efficacy [3, 19]
50%: Efficacy (Setaria viridis (SETVI); [26])
30%: Efficacy (Galium aparine (GALAP); [17]) | Efficacy (Galium aparine (GALAP); [18]) | Efficacy (Solanum nigrum (SOLNI); [25])
85%: Efficacy (Setaria viridis (SETVI); [24])
65%: Efficacy [2, 23] | Efficacy (Solanum nigrum (SOLNI); [23]) | Efficacy (Solanum nigrum (SOLNI); [24])
5%: Efficacy (Avena fatua (AVEFA); [19]) | Efficacy (Avena fatua (AVEFA); [22]) | Efficacy (Bromus sterilis (BROST); [19]) | Efficacy (Bromus sterilis (BROST); [22])
75%: Efficacy (Eleusine indica (ELEIN); [25]) | Efficacy [2, 25]
93%: Efficacy (DIGSA; [24])
3%: Efficacy [5, 19] | Efficacy [5, 22]
60%: Efficacy [4, 25]
90%: Efficacy (Eleusine indica (ELEIN); [24]) | Efficacy [2, 24]
0%: Efficacy (Poa annua (POAAN); [16]) | Efficacy (Avena fatua (AVEFA); [20]) | Efficacy (Avena fatua (AVEFA); [17]) | Efficacy (Avena fatua (AVEFA); [18]) | Efficacy (Avena fatua (AVEFA); [21]) | Efficacy (Galium aparine (GALAP); [21]) | Efficacy (Galium aparine (GALAP); 21 days after application, g of a.i./ha: A1-60 2.5, isoproturon 1600) | Efficacy (Galium aparine (GALAP); [19]) | Efficacy (Galium aparine (GALAP); [22]) | Efficacy (Phalaris minor (PHAMI); [21]) | Efficacy (Bromus sterilis (BROST); [20]) | Efficacy (Bromus sterilis (BROST); [16]) | Efficacy [3, 21] | Efficacy [5, 20] | Efficacy [5, 16] | Efficacy [5, 17] | Efficacy [5, 18]
10%: Efficacy (Poa annua (POAAN); [17]) | Efficacy (Poa annua (POAAN); [18]) | Efficacy (Phalaris minor (PHAMI); [20])
15%: Efficacy (Bromus sterilis (BROST); [17]) | Efficacy (Bromus sterilis (BROST); [18])
70%: Efficacy (Eleusine indica (ELEIN); [23]) | Efficacy [4, 24] | Efficacy (Setaria viridis (SETVI); [23]) | Efficacy (Setaria viridis (SETVI); [25]) | Efficacy (DIGSA; [25])
20%: Efficacy (Poa annua (POAAN); [19]) | Efficacy (Phalaris minor (PHAMI); [19]) | Efficacy (Solanum nigrum (SOLNI); [26]) | Efficacy [4, 26]

CS(=O)(=O)c1cc(C(F)(F)F)ccc1C(=O)c1cnoc1C1CC1 [isoxaflutole]
10%: Efficacy [2, 6] | Efficacy [2, 29] | Efficacy (DIGSA; [7])
0%: pest or weed control at […] (Eleusine indica (ELEIN); [28]) | Efficacy (Setaria viridis (SETVI); [29]) | Efficacy (Setaria viridis (SETVI); [30]) | Efficacy (DIGSA; [30])
65%: Efficacy (Solanum nigrum (SOLNI); [30])
20%: pest or weed control at […] (Eleusine indica (ELEIN); [27]) | pest or weed control at 10 g/ha (Eleusine indica (ELEIN); [28])
40%: Efficacy [4, 29]
60%: pest or weed control at 10 g/ha (Eleusine indica (ELEIN); [27]) | Efficacy [2, 7] | Efficacy [2, 30]

O=c1[nH]c2c(c(=O)n1C1CCCCC1)CCC2 [lenacil]
0%: pest or weed control at 300 g/ha (Eleusine indica (ELEIN); 336 h) | pest or weed control at 1200 g/ha (Eleusine indica (ELEIN); 336 h) | pest or weed control at 300 g/ha (Eleusine indica (ELEIN); 504 h) | pest or weed control at 1200 g/ha (Eleusine indica (ELEIN); 504 h) | Efficacy [2, 31] | Efficacy [2, 32] | Efficacy [2, 33] | Efficacy [2, 34] | Efficacy (Solanum nigrum (SOLNI); [31]) | Efficacy (Solanum nigrum (SOLNI); [32]) | Efficacy (Solanum nigrum (SOLNI); [33]) | Efficacy (Solanum nigrum (SOLNI); [34]) | Efficacy [4, 32] | Efficacy [4, 33] | Efficacy [4, 34] | Efficacy (Setaria viridis (SETVI); [31]) | Efficacy (Setaria viridis (SETVI); [32]) | Efficacy (Setaria viridis (SETVI); [33]) | Efficacy (Setaria viridis (SETVI); [34]) | Efficacy (DIGSA; [31]) | Efficacy (DIGSA; [32]) | Efficacy (DIGSA; [33]) | Efficacy (DIGSA; [34])
